ChEMBL document CHEMBL4402510, “Caprazamycins: Promising lead structures acting on a novel antibacterial target MraY” (Eur J Med Chem, 2019)
In brackets after ≈: the same amount, converted by molar mass.

What was measured:
Escherichia coli [1] = assay: Antibacterial activity against Escherichia coli expressing MraY; assay type: functional, organism-based
Staphylococcus aureus [2] = assay: Antibacterial activity against methicillin resistant Staphylococcus aureus No. 5; assay type: functional
Mycolicibacterium phlei = assay: Antibacterial activity against Mycobacterium phlei; assay type: functional
Staphylococcus aureus [3] = assay: Antibacterial activity against Staphylococcus aureus FDA 209P; assay type: functional
[4] = system: Mycobacterium tuberculosis; assay: Antibacterial activity against Mycobacterium tuberculosis JCM 6384; assay type: functional
[5] = system: Mycobacterium tuberculosis; assay: Antibacterial activity against Mycobacterium tuberculosis Kurono; assay type: functional
[6] = system: Mycolicibacterium smegmatis; assay: Antibacterial activity against Mycobacterium smegmatis ATCC 607; assay type: functional
Mycolicibacterium vaccae = assay: Antibacterial activity against Mycobacterium vaccae ATCC 15483; assay type: functional
[7] = Antibacterial activity against Mycobacterium avium subsp. avium ATCC 25291; assay type: functional
[8] = system: Mycobacterium tuberculosis; assay: Antibacterial activity against Mycobacterium tuberculosis H37Rv; assay type: functional
[9] = system: Mycobacterium avium subsp. paratuberculosis; assay: Antibacterial activity against Mycobacterium avium subsp. paratuberculosis ATCC 43015; assay type: functional
Staphylococcus aureus [10] = assay: Antibacterial activity against methicillin resistant Staphylococcus aureus MS16526; assay type: functional
Escherichia coli [11] = assay: Antibacterial activity against Escherichia coli K-12; assay type: functional
Bacillus subtilis = assay: Antibacterial activity against Bacillus subtilis PCI 219; assay type: functional

Row | Compound | IC50 (Escherichia coli [1]) [µM] | MIC (Staphylococcus aureus [2]) [µg/mL] | MIC (Mycolicibacterium phlei) [µg/mL] | MIC (Staphylococcus aureus [3]) [µg/mL] | MIC [4] [µg/mL] | MIC [5] [µg/mL] | MIC [6] [µg/mL] | MIC (Mycolicibacterium vaccae) [µg/mL] | MIC [7] [µg/mL] | MIC [8] [µg/mL] | MIC [9] [µg/mL] | also measured
1 | CN(C)C[C@H]1O[C@@H](OC[C@H]2O[C@@H](n3ccc(=O)[nH]c3=O)[C@H](O)[C@@H]2O)[C@H](O)[C@@H]1O | > 1000 | – | – | – | – | – | – | – | – | – | – | –
2 | C[N+](C)(C)C[C@H]1O[C@@H](OC[C@H]2O[C@@H](n3ccc(=O)[nH]c3=O)[C@H](O)[C@@H]2O)[C@H](O)[C@@H]1O | > 1000 | – | – | – | – | – | – | – | – | – | – | –
3 | CCCCCCCCCCCCCCCC(=O)O[C@H]1CN(C)[C@@H]([C@H](O)[C@H]2O[C@@H](n3ccc(=O)[nH]c3=O)[C@H](O)[C@@H]2O)C(=O)N(C)[C@@H]1C(=O)O | – | – | – | – | – | – | – | – | – | – | – | MIC50 (Escherichia coli [1]): > 100 µg/mL
4 | NC[C@H]1O[C@@H](OC[C@@H]2CC[C@H](n3ccc(=O)[nH]c3=O)O2)[C@H](O)[C@@H]1O | 120 | – | – | – | – | – | – | – | – | – | – | –
5 | NC[C@H]1O[C@@H](OC[C@H]2O[C@@H](n3ccc(=O)[nH]c3=O)C[C@@H]2O)[C@H](O)[C@@H]1O | 80 | – | – | – | – | – | – | – | – | – | – | –
6 | CCc1ccc(NC(=O)C2=CCN(C)[C@@H]([C@H](O[C@@H]3O[C@H](CN)[C@@H](O)[C@H]3O)[C@H]3O[C@@H](n4ccc(=O)[nH]c4=O)[C@H](O)[C@@H]3O)C(=O)N2C)cc1 | – | > 100 | 12.5 (≈ 18.9 µM) | > 100 | > 100 | 3.13 (≈ 4.74 µM) | > 100 | > 100 | 100 (≈ 151 µM) | 6.25 (≈ 9.46 µM) | > 100 | –
7 | CCCCCCCCCCCCCCCCCCCCNC(=O)C1=CCN(C)[C@@H]([C@H](O[C@@H]2O[C@H](CN)[C@@H](O)[C@H]2O)[C@H]2O[C@@H](n3ccc(=O)[nH]c3=O)[C@H](O)[C@@H]2O)C(=O)N1C | – | > 100 | 1.56 (≈ 1.86 µM) | > 100 | > 100 | 1.56 (≈ 1.86 µM) | 6.25 (≈ 7.47 µM) | 12.5 (≈ 14.9 µM) | 25 (≈ 29.9 µM) | 1.56 (≈ 1.86 µM) | 50 (≈ 59.7 µM) | –
8 | CCCCOc1ccc(NC(=O)C2=CCN(C)[C@@H]([C@H](O[C@@H]3O[C@H](CN)[C@@H](O)[C@H]3O)[C@H]3O[C@@H](n4ccc(=O)[nH]c4=O)[C@H](O)[C@@H]3O)C(=O)N2C)cc1 | – | > 100 | > 100 | > 100 | 0.78 (≈ 1.11 µM) | 3.13 (≈ 4.44 µM) | 25 (≈ 35.5 µM) | 100 (≈ 142 µM) | 3.13 (≈ 4.44 µM) | 1.56 (≈ 2.21 µM) | 0.78 (≈ 1.11 µM) | MIC (Staphylococcus aureus [10]): 3.13 µg/mL (≈ 4.44 µM); MIC (Escherichia coli [11]): > 100 µg/mL; MIC (Bacillus subtilis): > 100 µg/mL
9 | N=C(N)NC[C@H]1O[C@@H](OC[C@H]2O[C@@H](n3ccc(=O)[nH]c3=O)[C@H](O)[C@@H]2O)[C@H](O)[C@@H]1O | 25 | – | – | – | – | – | – | – | – | – | – | –
10 | CC(=O)NC[C@H]1O[C@@H](OC[C@H]2O[C@@H](n3ccc(=O)[nH]c3=O)[C@H](O)[C@@H]2O)[C@H](O)[C@@H]1O | > 1000 | – | – | – | – | – | – | – | – | – | – | –
11 | CCCCCCCC/C=C/CCCCCCCCNC(=O)C1=CCN(C)[C@@H]([C@H](O[C@@H]2O[C@H](CN)[C@@H](O)[C@H]2O)[C@H]2O[C@@H](n3ccc(=O)[nH]c3=O)[C@H](O)[C@@H]2O)C(=O)N1C | – | 6.25 (≈ 7.74 µM) | 1.56 (≈ 1.93 µM) | 6.25 (≈ 7.74 µM) | 1.56 (≈ 1.93 µM) | 3.13 (≈ 3.88 µM) | 1.56 (≈ 1.93 µM) | 1.56 (≈ 1.93 µM) | 6.25 (≈ 7.74 µM) | 3.13 (≈ 3.88 µM) | 0.78 (≈ 0.967 µM) | MIC (Staphylococcus aureus [10]): 0.78 µg/mL (≈ 0.967 µM); MIC (Escherichia coli [11]): > 100 µg/mL; MIC (Bacillus subtilis): > 100 µg/mL
12 | NC[C@H]1O[C@@H](O[C@H](CO)[C@H]2O[C@@H](n3ccc(=O)[nH]c3=O)[C@H](O)[C@@H]2O)[C@H](O)[C@@H]1O | 425 | – | – | – | – | – | – | – | – | – | – | –
13 | CCCNC[C@H]1O[C@@H](OC[C@H]2O[C@@H](n3ccc(=O)[nH]c3=O)[C@H](O)[C@@H]2O)[C@H](O)[C@@H]1O | 140 | – | – | – | – | – | – | – | – | – | – | –
14 | CCCCCCCc1ccc(NC(=O)C2=CCN(C)[C@@H]([C@H](O[C@@H]3O[C@H](CN)[C@@H](O)[C@H]3O)[C@H]3O[C@@H](n4ccc(=O)[nH]c4=O)[C@H](O)[C@@H]3O)C(=O)N2C)cc1 | – | < 0.2 | 25 (≈ 34.2 µM) | 12.5 (≈ 17.1 µM) | 0.1 (≈ 0.137 µM) | 0.78 (≈ 1.07 µM) | < 0.2 | 1.56 (≈ 2.13 µM) | 1.56 (≈ 2.13 µM) | 0.78 (≈ 1.07 µM) | 0.05 (≈ 0.0684 µM) | MIC (Staphylococcus aureus [10]): 50 µg/mL (≈ 68.4 µM); MIC (Bacillus subtilis): 6.25 µg/mL (≈ 8.55 µM)
15 | CCNC[C@H]1O[C@@H](OC[C@H]2O[C@@H](n3ccc(=O)[nH]c3=O)[C@H](O)[C@@H]2O)[C@H](O)[C@@H]1O | 150 | – | – | – | – | – | – | – | – | – | – | –
16 | CCCCCCCCCCCCCCCCCNC(=O)C1=CCN(C)[C@@H]([C@H](O[C@@H]2O[C@H](CN)[C@@H](O)[C@H]2O)[C@H]2O[C@@H](n3ccc(=O)[nH]c3=O)[C@H](O)[C@@H]2O)C(=O)N1C | – | – | > 100 | – | 6.25 (≈ 7.86 µM) | 6.25 (≈ 7.86 µM) | 1.56 (≈ 1.96 µM) | > 100 | 1.56 (≈ 1.96 µM) | 3.13 (≈ 3.94 µM) | 6.25 (≈ 7.86 µM) | –
